“Also recorded” adds a separate entry of the source. Like-named read-outs stand apart in the source and are kept apart here.
Experiments:
DNA = DNA affinity; type: binding
[1] = mouse, in vivo
mouse P 388 leukemia = test: P 388 leukemia in mice, same procedure, inoculum of 10^5 cells; type: in vivo; settings: same doses, compared with L1210 leukemia
Source text: The effect the compounds of the invention have on mouse L 1210 or P 388 leukemias was used to test the antitumor activity of said compounds.
B-The same procedure was used as in A, but after a tumoral inoculum of 10^5 P 388 leukemia cells had been injected to the mice. The therapeutic activity of the 9-hydroxy 2-methyl-ellipticinium was similar on this mouse P 388 leukemia to that obtained on mouse L1210 leukemia, using the same doses.

[2] = tested on: advanced breast, thyroid, or colon cancers; test: Phase I trial, weekly intravenous dose, refractory patients; type: in vivo, human
Description: A phase I trial was done at the Cancer Institute of 14-Caen, France. A weekly dose in the range of 50 to 100 mg per m2 was given intravenously over a 30 minutes period to patients refractory to usual chemotherapeutic or radiotherapeutic treatments (3). […] They were suffering from advanced breast, thyroid, or colon cancers, with bone or lung metastasis in mostcases.

[3] = Source text: (§1) The mice were randomized in each experimental series. A first routine experiment enable the death rate by toxicity to be determined and thus established the sublethal doses.
(§2) To evaluate the therapeutic activity of the compounds of the invention, doses of said compound were expressed basing them on the 30 days sublethal dose which was fixed at 1.

L1210 cells = test: Rate of L1210 cells multiplication in vitro; type: cell-based, mouse
[4] = Autoradiography with 14C-labeled molecules (biodisponibility); type: in vivo
Source text: To understand the increase of the antitumor efficiency of the quaternarized compounds, several parameters of action of 9--OH--E and its methyl derivative have been comparatively established (see table III). Both compounds have about the same affinity for DNA. On a weight basis, the methyl compound is about 10 times more toxic in mice but also 10 times more efficient on leukemic mice (ILS). […] Therefore, there is no quantitative parallel between the in vivo and in vitro action of these drugs. The N-quaternization markedly changes the biodisponibility of the drugs as shown by autoradiography with ^14 C-labeled molecules. […] Several ellipticine derivatives are mutagenic on Ames Salmonella test; however, the quaternized derivatives lose this property. The microsomes, which are able to metabolize some ellipticines, increase the mutagenic ability of these drugs in vitro. […] Due to the curved shape of their molecules, their relative hydrophobicity, and the presence of a heterocyclic nitrogen, the ellipticines are good substrates for the cytochrome P450 system, provided that the 2-N remains uncharged.

mouse L 1210 leukemia [5] = test: L1210 leukemia in mice: inoculum of 10^5 cells, single dose of compound 24 hours later; type: in vivo
Source text: The experimental tumor mouse L 1210 leukemia is commonly used to evaluate the effects of all the antitumor compounds now used in human therapeutics,as was described, for example, by C. C. ZUBROD in Proc. Nat. Acad. Sci. USA 69, 1972, pp. 1042-1047. This experimentally formed tumoral system permits very accurate quantitative evaluation of the activity of the compound tested and also, consequently, an objective comparison of the respective activities of various compounds, for example, according to the methods described by H. E. SKIPPER, F. M. SCHABEL Jr. and W. S. WILCOX in Cancer Chemiother. Rep. 1964, pp. 1-111 and 45, 1965, pp. 5-28.
as §1
According to the convention in force in this field, the animals which survived longer than 45 days after inoculation of tumoral cells were considered to be cured.
as §2
A--A tumoral inoculum of 10^5 L1210 leukemia cells was administered by the intraperitoneal way to twenty 2 to 3 months old DBA/2 strain female mice. 24 hours later, half of said mice received a single intraperitoneal injection of a variable dose of the compound to be tested and the same volume of solvent was administered to the other half of the mice by the same way; this latter half of the group of mice was therefore used as the control series. The mice were randomized in each experimental series.
Animals surviving for longer than 45 days were considered to be cured.

[6] = cited from earlier work
Hodgkin's disease = settings: in vivo; cited from earlier work
[7] = tested on: acute lymphoblastic leukemia; settings: in vivo; cited from earlier work
BP 8 tumors = settings: mouse, in vivo; cited from earlier work
mouse L 1210 leukemia [8] = settings: in vivo; cited from earlier work
[9] = tested on: acute myeloblastic leukemia; settings: in vivo; cited from earlier work

Which results are given for Cc1c2cc[n+](C)cc2c(C)c2c1[nH]c1ccc(O)cc12 [9-hydroxy 2-methyl ellipticinium acetate, 9-hydroxy-2-methyl-ellipticinium acetate]?
Kd (DNA): 769 nM; Metabolism [1]: excreted with no major modification; Therapeutic activity on mouse P 388 leukemia (mouse P 388 leukemia): similar; Activity on human tumors ([2]; human, in vivo): active on some human tumors; Toxic side effects ([2]; phase I trial): No major toxic side effects; Patients with subjective or objective improvements ([2]; weekly 50 to 100 mg per m2 intravenously over 30 minutes): Eight of the first 18 patients; Toxicity in mice relative to 9--OH--E, on a weight basis [3]: about 10 times; LDo (highest non lethal dose / sublethal dose) for mice ([3]; route not given): 5 mg/kg; Activity on the rate of growth of L1210 cells in vitro relative to 9--OH--E (L1210 cells): four times less active; Elimination [4]: elimination through feces is reduced; Organ distribution (autoradiography) ([4]; listed as methyl derivative): devoid of any ability to concentrate in lungs and pancreas; also recorded: capacity to concentrate in the intestinal walls and in the thyroid; Doses smaller than the doses of 9-hydroxy-ellipticine necessary to obtain a comparable result (mouse L 1210 leukemia [5]; L1210 leukemia): about 10 times; ED (ILS 25%) (mouse L 1210 leukemia [5]; Mus musculus, L1210, ip, mice, read-out: L 1210 cells: in vivo dose to reach ILS 25%): 1 mg/kg; Cured mouse surviving more than 45 days (mouse L 1210 leukemia [5]; footnote of table IV, I.P., 10^5 L1210 cells): 1 out of 20 mice; Efficiency on leukemic mice (ILS) relative to 9--OH--E, on a weight basis (mouse L 1210 leukemia [5]; mouse, in vivo): about 10 times

With COc1ccc2[nH]c3c(C)c4ccncc4c(C)c3c2c1 [9-methoxy-ellipticine lactate] as the compound, how does the Immunosuppressive action ([6]; administered after the antigen) read?
Its Immunosuppressive action is “has an immunosuppressive action”.

And the Immunosuppressive action ([6]; administered to humans)?
Its Immunosuppressive action is “does not reveal such an activity”.

And the “Effectiveness in Hodgkin's disease” value (Hodgkin's disease)?
The value was “ineffective”.

What about the “Effectiveness in acute lymphoblastic leukemia” value [7] of the same compound?
The value was “ineffective”.

What about the “Oncostatic action in BP 8 tumors” value (BP 8 tumors) of the same compound?
Its value is “oncostatic action”.

What about the “Oncostatic action in mouse L 1210 leukemia” value (mouse L 1210 leukemia [8]) of the same compound?
Its value is “oncostatic action”.

And the “Effectiveness in acute myeloblastic leukemia” value [9]?
The value was “effective”.

Reference: patent US4483989A, “Synthesis of pyrido[4,3-b]carbazole derivatives” (priority 1973, dated 1984)
